Where two headings read alike, the source gives them in different places.
How the values were obtained:
[1] = test system: advanced colorectal cancers; details: 5-FU alone; cited from earlier work
[2] = molecular target: T1, dihydropyrimidine dehydrogenase (DPD) (Homo sapiens, UniProt Q12882); details: cited from earlier work
T1 construct: host or cells: endogenous enzyme of the body (in vivo drug catabolism)
T1 sequence (Q12882 4-1025): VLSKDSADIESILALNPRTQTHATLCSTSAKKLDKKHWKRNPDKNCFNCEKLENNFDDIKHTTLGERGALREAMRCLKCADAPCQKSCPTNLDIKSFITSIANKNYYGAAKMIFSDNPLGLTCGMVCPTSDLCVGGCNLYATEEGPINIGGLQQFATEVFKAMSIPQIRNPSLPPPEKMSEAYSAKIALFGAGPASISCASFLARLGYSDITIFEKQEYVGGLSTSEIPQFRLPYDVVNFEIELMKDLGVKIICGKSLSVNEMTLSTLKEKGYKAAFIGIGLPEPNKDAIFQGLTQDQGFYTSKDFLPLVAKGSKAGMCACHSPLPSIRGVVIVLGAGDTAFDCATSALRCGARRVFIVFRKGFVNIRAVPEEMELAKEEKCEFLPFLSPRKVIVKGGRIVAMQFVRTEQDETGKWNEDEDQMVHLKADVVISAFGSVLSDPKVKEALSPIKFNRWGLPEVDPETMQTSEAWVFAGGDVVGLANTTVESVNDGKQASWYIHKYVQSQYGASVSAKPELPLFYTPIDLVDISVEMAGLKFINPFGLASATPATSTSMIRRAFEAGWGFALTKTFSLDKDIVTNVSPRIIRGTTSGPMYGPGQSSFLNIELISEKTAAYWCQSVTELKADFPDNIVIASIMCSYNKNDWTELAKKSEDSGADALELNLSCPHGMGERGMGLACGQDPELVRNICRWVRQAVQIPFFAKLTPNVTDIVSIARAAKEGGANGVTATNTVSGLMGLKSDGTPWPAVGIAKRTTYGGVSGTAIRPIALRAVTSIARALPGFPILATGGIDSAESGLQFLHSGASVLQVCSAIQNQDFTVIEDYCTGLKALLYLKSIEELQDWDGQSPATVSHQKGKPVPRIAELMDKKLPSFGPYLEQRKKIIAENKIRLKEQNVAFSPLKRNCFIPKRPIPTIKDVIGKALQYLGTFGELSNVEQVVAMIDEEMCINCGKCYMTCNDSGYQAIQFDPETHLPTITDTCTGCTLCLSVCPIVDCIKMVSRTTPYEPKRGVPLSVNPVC

[3] = cited from earlier work
[4] = test system: patients with class IV LN; details: cited from earlier work; for renal remission achieved: then AZA maintenance
[5] = test system: patients with class IV LN; details: cited from earlier work
[6] = test system: patients with severe LN; details: cited from earlier work; for combined end point, complete plus partial remission (number of patients): P=0.009; for complete remission (number of patients) / complete remission (percent of patients) / partial remission (number of patients): induction therapy of LN; for complete remission (number of patients) / complete remission (percent of patients): 140 patients randomized
[7] = test system: patients with proliferative LN; details: 59 patients, cited from earlier work; for patients who died during maintenance therapy: followed for as long as 30 months
[8] = human, in vivo
[9] = test system: rheumatoid arthritis patients; details: five trials, 300 patients, cited from earlier work
[10] = test system: rheumatoid arthritis patients; details: cited from earlier work

## O=c1[nH]cc(F)c(=O)[nH]1 [5-FU, 5-Fluorouracil]
[1]
  partial remissions: 10-30%
[2]; in vivo
  fraction of a dose transformed by DPD to the inactive dihydrofluorouracil form: more than 80%
[2]; injected dose
  fraction of an injected dose rapidly inactivated by DPD: More than 85%
[3]; normal individuals
  dose excreted unchanged in the urine: 10%
[3]; people genetically deficient in DPD
  dose excreted unchanged in the urine: 90%

## O=P1(N(CCCl)CCCl)NCCCO1 (stereo not shown) [CYC, Cyclophosphamide]
[4]; high-dose group (six monthly pulses followed by two quarterly pulses IV)
  renal remission achieved: 54%
[4]; high-dose group
  subsequent renal flares: 29%
[4]; low-dose group (500 mg biweekly x six pulses IV)
  renal remission achieved: 71%
[4]; low-dose group
  subsequent renal flares: 27%
[5]; black patients, at year 5
  renal survival: 71%
[5]; nonblack patients, through 5 years of follow-up
  renal survival rate: 95%
[6]
  combined end point, complete plus partial remission (number of patients): 21 patients
  complete remission (number of patients): four
  complete remission (percent of patients): 6%
  partial remission (number of patients): 17 patients
[6]; all in patients randomized to IV CYC
  deaths: Three
[7]
  patients who died during maintenance therapy: four
  patients who developed chronic renal failure during maintenance therapy: three

## Cn1cnc([N+](=O)[O-])c1Sc1ncnc2nc[nH]c12 [AZA, azathioprine]
[8]
  6-TG level at maintained therapeutic response: 187 pmol
  therapeutic range of 6-TG: 140 to 249 pmol
[7]
  patients who developed chronic renal failure during maintenance therapy: one

## CN(Cc1cnc2nc(N)nc(N)c2n1)c1ccc(C(=O)N[C@@H](CCC(=O)O)C(=O)O)cc1 [MTX, methotrexate]
[9]
  more likely than placebo to discontinue treatment due to adverse reactions: three
[9]; placebo group seven percent
  people who withdrew due to adverse effects: twenty-two
[10]; human, in vivo
  fraction of rheumatoid arthritis patients showing major improvement: one-third
[10]; rheumatoid arthritis patients
  patients with mild adverse effects: up to 60%

## COc1c(C)c2c(c(O)c1C/C=C(\C)CCC(=O)OCCN1CCOCC1)C(=O)OC2 [MMF, Mycophenolate mofetil]
[6]
  combined end point, complete plus partial remission (number of patients): 37 patients
  complete remission (number of patients): 16 patients
  complete remission (percent of patients): 23%
  partial remission (number of patients): Twenty-one
[7]
  patients who died during maintenance therapy: one
  patients who developed chronic renal failure during maintenance therapy: one

From patent US20060253263A1, “Method to optimize drug selection, dosing and evaluation and to help predict therapeutic response and toxicity from immunosuppressant therapy” (priority 2005, published 2006)
